Read-outs that look alike come from different tables or passages of the source.
Molecular target: HPK1 (Homo sapiens (Human), UniProt Q92918)
Test: HPK1 biochemical assay (ADP-GLO Kinase Assay)
Excerpt: This example used the ADP-GLO™ Kinase Assay to measure the effect of potential HPK1 inhibitor compounds on HPK1 kinase activity.
The ADP-GLO™ Kinase Assay (Promega Corp., Madison, WI) measures ADP formed from a kinase reaction. According to the manufacture, the ADP formed in a kinase assay is first converted into ATP, which is then used to generate light in a luciferase reaction. The luminescence generated correlates with kinase activity. An exemplary experimental setting is described below, though minor adjustments can be made in individual assays.
Serial 3-fold dilution of compoounds from 10 µM (top concentration) to 0.508 nM (lowest concentration). Positive control is 10 µM Reference + enzyme + substrate. Negative control is 1% DMSO + enzyme + substrate.
40 mM Tris pH7.5; 20 mM MgC12, 0.1 mg/ml BSA, 50 µM DTT Buffer stock
• 1) The compounds were diluted to 1 mM, by mixing 10 µL of 10 mM respective compound stocks with 90 µL of DMSO. • 2) The compounds were then diluted 3-fold for 10 doses (5 µL to 10 µL dilution) by BRAVO. The top compound conc. was 1 mM (100×), DMSO Conc. was 100%. • 3) Transfer 100 nL of each diluted compound sample to 384-well plate (Corning-4512) by ECHO. • 4) Centrifuge the plate at 1,500 rpm for 1 minute.
20 µM ATP, 0.2 µg/µL MBP in Kinase Buffer (final concentration: 10 µM ATP, 0.1 µg/µL MBP)
• 5. Preparation of 2× HPK1 working solution with assay buffer. HPK1 final concentration was 0.6 ng/µL. […] Add 5 µL/well of 2× HPK1 working solution, Centrifuge at 1,500 rpm for 1 minute. • 7. Add 5 µL/well of 2× ATP-Substrate, Centrifuge at 1,500 rpm for 1 minute. • 8. Incubate at 25° C. for 1 hour (or 6 hours for compounds with high potency). • 9. Add 5 µL/well ADP-GLO™ Reagent to stop the kinase reaction and deplete the unconsumed ATP. Centrifuge at 1,500 rpm for 1 minute. Incubate at 25° C. for 40 min. • 10. Add 10 µL of Kinase Detection Reagent to convert ADP to ATP. Centrifuge at 1,500 rpm for 1 minute. Incubate at 25° C. for 40 min. • 11. Record luminescence signal on an Envision plate reader (384-CTG).
The percent (%) inhibition at each concentration of compound is calculated based on and relative to the signal in the High and Low control wells contained within each assay plate. […] The concentrations and % inhibition values for tested compounds were plotted and the concentration of compound required for 50% inhibition (IC50) was determined with a Three-parameter logistic dose response equation. The endpoint value (IC50) for the reference peptide/compound was evaluated in each experiment as a quality control measure. If the endpoint value was within 3-fold of the expected value, then the experiment was deemed acceptable.

[1] = ADP-GLO, 10 µM ATP, MBP substrate, read-out: HPK1 IC50
[2] = Table 12-1, read-out: HPK1 inhibition activities

Chain of HPK1 (Q92918 whole entry): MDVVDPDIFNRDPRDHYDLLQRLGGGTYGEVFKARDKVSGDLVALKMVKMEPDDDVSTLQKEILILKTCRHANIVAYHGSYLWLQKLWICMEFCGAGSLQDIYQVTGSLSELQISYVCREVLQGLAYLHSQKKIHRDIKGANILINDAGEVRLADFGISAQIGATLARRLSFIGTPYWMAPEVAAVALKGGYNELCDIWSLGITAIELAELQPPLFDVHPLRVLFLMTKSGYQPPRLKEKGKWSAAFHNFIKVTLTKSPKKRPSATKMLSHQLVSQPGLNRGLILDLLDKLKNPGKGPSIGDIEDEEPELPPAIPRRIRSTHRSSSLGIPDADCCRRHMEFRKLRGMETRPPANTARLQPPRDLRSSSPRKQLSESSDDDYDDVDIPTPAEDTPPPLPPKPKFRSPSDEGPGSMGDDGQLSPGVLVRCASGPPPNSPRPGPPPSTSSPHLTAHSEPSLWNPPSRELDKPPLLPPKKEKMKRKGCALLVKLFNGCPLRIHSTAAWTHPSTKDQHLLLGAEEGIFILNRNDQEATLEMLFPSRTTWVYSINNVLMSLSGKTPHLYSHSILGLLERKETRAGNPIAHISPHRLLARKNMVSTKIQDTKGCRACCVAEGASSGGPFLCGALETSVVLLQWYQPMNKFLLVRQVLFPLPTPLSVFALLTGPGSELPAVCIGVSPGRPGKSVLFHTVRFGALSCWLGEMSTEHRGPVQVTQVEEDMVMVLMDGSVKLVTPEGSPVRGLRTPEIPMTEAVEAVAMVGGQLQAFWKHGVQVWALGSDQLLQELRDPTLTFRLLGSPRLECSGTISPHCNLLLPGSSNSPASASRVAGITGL

IC50 [1]	IC50 [2]	SMILES
0.2 nM	< 1 nM	COc1cc2c(cc1Nc1ncc(Cl)c(N3CC(C)(CC(=O)O)c4ccccc43)n1)CN(C)CC2 (single isomer, unassigned) [Example 2, (R)-2-(1-(5-chloro-2-((6-methoxy-2-methyl-1,2,3,4-tetrahydroisoquinolin-7-yl)amino)pyrimidin-4-yl)-3-methylindolin-3-yl)acetic acid or (S)-2-(1-(5-chloro-2-((6-methoxy-2-methyl-1,2,3,4-tetrahydroisoquinolin-7-yl)amino)pyrimidin-4-yl)-3-methylindolin-3-yl)acetic acid]
0.2 nM	< 1 nM	CN1CCc2cc(F)c(Nc3ncc(Cl)c(N4C[C@](C)(CC(=O)O)c5ccccc54)n3)cc2C1 (single isomer, unassigned) [Example 5, (R)-2-[1-[5-chloro-2-[(6-fluoro-2-methyl-3,4-dihydro-1H-isoquinolin-7-yl)amino]pyrimidin-4-yl]-3-methyl-indolin-3-yl]acetic acid or (S)-2-[1-[5-chloro-2-[(6-fluoro-2-methyl-3,4-dihydro-1H-isoquinolin-7-yl)amino]pyrimidin-4-yl]-3-methyl-indolin-3-yl]acetic acid]
1 nM		COc1cc2c(cc1Nc1ncc(Cl)c(N3CC(C(=O)O)c4ccccc43)n1)CN(C)CC2 (centres unmarked) [Compound 7, reference compound]
1.5 nM		COc1cc2c(cc1Nc1ncc(Cl)c(N3CC(CC(=O)O)c4ccccc43)n1)CN(C)CC2 (centres unmarked) [Compound 8, reference compound]
0.5 nM		COc1cc2c(cc1Nc1ncc(Cl)c(N3CC(C)(CC(=O)O)c4ccc(F)cc43)n1)CN(C)CC2 (centres unmarked) [Compound 10, reference compound]
0.5 nM	< 1 nM	COc1cc2c(cc1Nc1ncc(Cl)c(N3CC(C)(CC(=O)O)c4ccccc43)n1)CN(C)CC2 (centres unmarked) [Example 1, 2-(1-(5-chloro-2-((6-methoxy-2-methyl-1,2,3,4-tetrahydroisoquinolin-7-yl)amino)pyrimidin-4-yl)-3-methylindolin-3-yl)acetic acid]
0.7 nM	< 1 nM	CN1CCc2cc(F)c(Nc3ncc(Cl)c(N4CC(C)(CC(=O)O)c5ccccc54)n3)cc2C1 (centres unmarked) [Example 4, 2-(1-(5-chloro-2-((6-fluoro-2-methyl-1,2,3,4-tetrahydroisoquinolin-7-yl)amino)pyrimidin-4-yl)-3-methylindolin-3-yl)acetic acid]
